Measured values published in US11597701B2, “Integrin ligands and uses thereof” (Arrowhead Pharmaceuticals, Inc., priority 2017, dated 2023).

Target: αvβ6 integrin (Homo sapiens, UniProt P06756+P18564)
Experiment: IC50 binding activity (Examples 3 and 12)
Settings: Example 12, Table 17; azide-functionalized structures (2b, 6.1b, 7b, 23b) examined
Text: As reported in the following Table 1, IC50 binding data was obtained for the αvβ6 integrin ligands of Structures 1 and 2:
Azide-functionalized structures (i.e., Structures 1b and 2b) were examined for IC50 under conditions typically used and known in the art.
As reported in the following Table 17, additional IC50 binding data was obtained for the αvβ6 integrin ligands of Structures 2, 6.1, 7, and 23 used in certain Examples herein: […]

Sequence of αvβ6 integrin (P06756 31-1048): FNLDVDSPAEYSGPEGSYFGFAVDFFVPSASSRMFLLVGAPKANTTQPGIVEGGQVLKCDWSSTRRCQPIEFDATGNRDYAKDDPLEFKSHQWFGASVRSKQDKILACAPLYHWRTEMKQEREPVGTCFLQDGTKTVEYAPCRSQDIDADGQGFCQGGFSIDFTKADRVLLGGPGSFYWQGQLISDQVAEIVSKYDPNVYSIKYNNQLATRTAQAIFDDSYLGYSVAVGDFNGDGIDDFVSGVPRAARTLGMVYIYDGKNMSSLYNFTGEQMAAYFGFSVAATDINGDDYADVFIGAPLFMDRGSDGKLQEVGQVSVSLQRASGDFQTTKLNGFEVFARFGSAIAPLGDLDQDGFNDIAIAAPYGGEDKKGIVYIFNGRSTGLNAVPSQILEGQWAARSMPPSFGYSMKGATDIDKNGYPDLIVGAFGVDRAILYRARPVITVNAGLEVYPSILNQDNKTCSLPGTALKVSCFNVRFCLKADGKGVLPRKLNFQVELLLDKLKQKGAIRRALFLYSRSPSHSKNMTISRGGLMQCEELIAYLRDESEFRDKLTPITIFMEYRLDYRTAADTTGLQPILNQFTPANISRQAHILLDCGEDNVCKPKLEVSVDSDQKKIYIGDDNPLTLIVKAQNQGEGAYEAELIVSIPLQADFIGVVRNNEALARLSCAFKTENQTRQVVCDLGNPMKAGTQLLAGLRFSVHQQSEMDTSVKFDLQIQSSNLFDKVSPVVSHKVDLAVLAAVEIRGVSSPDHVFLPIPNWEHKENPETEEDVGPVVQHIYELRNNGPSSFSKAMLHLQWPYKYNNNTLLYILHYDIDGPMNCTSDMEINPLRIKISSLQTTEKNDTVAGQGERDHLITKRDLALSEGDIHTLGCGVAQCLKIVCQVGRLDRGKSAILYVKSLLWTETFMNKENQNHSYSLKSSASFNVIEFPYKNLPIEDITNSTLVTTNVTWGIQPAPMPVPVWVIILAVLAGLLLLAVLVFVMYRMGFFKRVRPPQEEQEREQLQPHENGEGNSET
Sequence of αvβ6 integrin (P18564 22-788): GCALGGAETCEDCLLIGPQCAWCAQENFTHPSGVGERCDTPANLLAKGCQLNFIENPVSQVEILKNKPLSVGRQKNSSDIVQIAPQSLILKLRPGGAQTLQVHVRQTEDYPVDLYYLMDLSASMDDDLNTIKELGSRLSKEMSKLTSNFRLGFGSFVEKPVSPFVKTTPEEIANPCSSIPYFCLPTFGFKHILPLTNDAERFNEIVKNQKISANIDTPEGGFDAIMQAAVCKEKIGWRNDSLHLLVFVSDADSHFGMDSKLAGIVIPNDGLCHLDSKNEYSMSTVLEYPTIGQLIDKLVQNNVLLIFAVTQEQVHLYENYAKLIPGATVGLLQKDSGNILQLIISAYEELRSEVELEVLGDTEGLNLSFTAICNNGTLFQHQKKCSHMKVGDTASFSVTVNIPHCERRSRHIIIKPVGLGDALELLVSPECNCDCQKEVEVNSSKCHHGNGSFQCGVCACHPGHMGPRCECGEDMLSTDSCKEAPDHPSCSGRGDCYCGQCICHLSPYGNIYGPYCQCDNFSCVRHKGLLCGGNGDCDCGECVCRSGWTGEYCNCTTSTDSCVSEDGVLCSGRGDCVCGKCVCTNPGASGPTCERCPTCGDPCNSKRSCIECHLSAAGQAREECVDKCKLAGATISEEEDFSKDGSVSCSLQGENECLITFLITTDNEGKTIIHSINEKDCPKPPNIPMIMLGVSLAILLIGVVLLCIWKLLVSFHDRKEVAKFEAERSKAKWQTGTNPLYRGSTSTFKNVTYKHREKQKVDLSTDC

IC50: 1.6 nM
SMILES: Cc1ccnc(NCCCC(=O)NCC(=O)N[C@@H](CC(=O)O)c2ccc(-c3ccc(OCCOCCOCCOCCOCCN=[N+]=[N-])c4ccccc34)cc2)c1 [Structure 6.1]
